Test results taken from publication PMC3703888, “Integration of Different “-omics” Technologies Identifies Inhibition of the IGF1R-Akt-mTOR Signaling Cascade Involved in the Cytotoxic Effect of Shikonin against Leukemia Cells” (Evidence-based Complementary and Alternative Medicine : eCAM, 2013).

Tests used:
EGFR = tested on: EGFR; parameters: method as in PMID 14568164; conditions: previous studies ref 24; cited from earlier work
U937 cells = test: mRNA microarray; assay type: cell-based, human; conditions: shikonin at IC50 concentration, 24 h vs DMSO
Experimental: Total RNA from U937 cells after 24 h of treatment with shikonin at IC50 concentration or DMSO solvent control was isolated using RNeasy Kit from Qiagen (Hilden, Germany) according to the manufacture's instruction. The quality of total RNA was checked by gel analysis using the total RNA Nano chip assay on an Agilent 2100 Bioanalyzer (Agilent Technologies GmbH, Berlin, Germany). Only samples with RNA index values greater than 9.3 were selected for expression profiling. Microarray experiments were performed in duplicates for treated and untreated samples. Biotin-labeled cRNA samples for hybridization on Illumina Human Sentrix-HT12 Bead Chip arrays (Illumina, Inc.) were prepared according to Illumina's recommended sample labeling procedure based on the modified Eberwine protocol. Biotin-16-UTP was purchased from Roche Applied Science (Penzberg, Germany). The cRNA was column purified with TotalPrep RNA Amplification Kit and eluted in 60 μL of water. Quality of cRNA was controlled using the RNA Nano Chip Assay on an Agilent 2100 Bioanalyzer and spectrophotometrically quantified (NanoDrop). Hybridization was also performed according the manufacturer's recommendations. Microarray scanning was done using a Beadstation array scanner, setting adjusted to a scaling factor of 1 and PMT settings at 430. Data was extracted for each bead individually, and outliers were removed when the MAD (median absolute deviation) was greater than 2.5. Data analysis was performed by using the quantile normalization algorithm without background subtraction, and differentially regulated genes were defined by calculating the standard deviation differences of a given probe in a one-by-one comparison of samples or groups. The expression data obtained was filtered with Chipster data analysis platform. These steps include filtering of genes by two times standard deviation of deregulated genes and a subsequent assessment of significance using empirical Bayes t-test (P < 0.05).

Structure (SMILES): CC(C)=CC[C@@H](O)C1=CC(=O)c2c(O)ccc(O)c2C1=O [shikonin]
- EGFR phosphorylation (EGFR): inhibits EGFR phosphorylation
- FC mRNA ACTB (Actin, cytoplasmic 1) (U937 cells): −6.8
- FC mRNA ACTG1 (Actin, cytoplasmic 2) (U937 cells): −11.9
- FC mRNA ALDOA (Fructose-bisphosphate aldolase A) (U937 cells): −17.6
- FC mRNA ANXA1 (Annexin A1) (U937 cells): +4.1
- FC mRNA ARPC1B (Actin-related protein 2/3 complex subunit 1B) (U937 cells): −7.8
- FC mRNA CCL2 (C-C motif chemokine 2) (U937 cells): +4.2
- FC mRNA CCT7 (T-complex protein 1 subunit eta) (U937 cells): −7.8
- FC mRNA ERP29 (Endoplasmic reticulum resident protein 29) (U937 cells): −6.0
- FC mRNA HMOX1 (Heme oxygenase 1) (U937 cells): +4.1
- FC mRNA HSPD1 (60 kDa heat shock protein, mitochondrial) (U937 cells): −6.6
- FC mRNA JUN (Transcription factor AP-1) (U937 cells): +3.2
- FC mRNA LY96 (Lymphocyte antigen 96) (U937 cells): +4.5
- FC mRNA MAFB (Transcription factor MafB) (U937 cells): +3.5
- FC mRNA MLLT11 (Protein AF1q) (U937 cells): +6.2
- FC mRNA NCF1 (Neutrophil cytosol factor 1) (U937 cells): −5.9
- FC mRNA PSMC4 (26S protease regulatory subunit 6B) (U937 cells): −7.7
- FC mRNA S100A8 (Protein S100-A8) (U937 cells): +4.7
- FC mRNA S100A9 (Protein S100-A9) (U937 cells): +4.2
- FC mRNA SLC39A3 (Zinc transporter ZIP3) (U937 cells): −6.2
- FC mRNA VIM (Vimentin) (U937 cells): +4.2
